BindingDB's records for doi:10.1016/s0960-894x(02)00682-0 (Bristol-Myers Squibb Pharmaceutical Research Institute, 2002)
Peptide text beside a SMILES is read from it. * marks the point of attachment. X11 = CCCCCC[C@H](N*)B1O[C@@H]2C[C@@H]3C[C@@H](C3(C)C)[C@]2(C)O1; X14 = CCCC[C@H](N*)B1O[C@@H]2C[C@@H]3C[C@@H](C3(C)C)[C@]2(C)O1

Molecular target: T1, Chymotrypsin-C (Homo sapiens, UniProt Q99895)
T1 sequence (Q99895 whole entry): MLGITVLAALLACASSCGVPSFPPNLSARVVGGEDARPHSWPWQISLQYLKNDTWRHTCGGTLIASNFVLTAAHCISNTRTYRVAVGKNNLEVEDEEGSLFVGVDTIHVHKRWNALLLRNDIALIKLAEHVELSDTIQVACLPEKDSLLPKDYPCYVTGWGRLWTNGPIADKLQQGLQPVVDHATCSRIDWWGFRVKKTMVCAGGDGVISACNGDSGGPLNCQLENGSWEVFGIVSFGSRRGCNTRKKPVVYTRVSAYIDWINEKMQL
Experiment: (§1) Inhibitory concentration against Human pancreatic Serine protease chymotrypsin

| Compound | IC50 [µM] |
| --- | --- |
| CC(C)[C@H](NC(=O)[C@H](CCC(=O)O)NC(=O)[C@@H](N)CC(=O)O)C(=O)N[C@H](C(=O)N1CCC[C@H]1C(=O)N[C@@H](CCCCc1ccccc1)B1O[C@@H]2C[C@@H]3C[C@@H](C3(C)C)[C@]2(C)O1)C(C)C [Peptide Boronic Acid analogue] | 1.9 |
| CC(C)[C@H](NC(=O)[C@H](CCC(=O)O)NC(=O)[C@@H](N)CC(=O)O)C(=O)N[C@H](C(=O)N1CCC[C@H]1C(=O)N[C@@H](CCc1ccc(C(F)(F)F)cc1)B1O[C@@H]2C[C@@H]3C[C@@H](C3(C)C)[C@]2(C)O1)C(C)C [Peptide Boronic Acid analogue] | 16 |
| CC[C@H](NC(=O)[C@@H]1CCCN1C(=O)[C@@H](NC(=O)[C@@H](NC(=O)[C@H](CCC(=O)O)NC(=O)[C@@H](N)CC(=O)O)C(C)C)C(C)C)B1O[C@@H]2C[C@@H]3C[C@@H](C3(C)C)[C@]2(C)O1 [Peptide Boronic Acid analogue] | > 60 |
| CCCCCC[C@H](NC(=O)[C@@H]1CCCN1C(=O)[C@@H](NC(=O)[C@@H](NC(=O)[C@H](CCC(=O)O)NC(=O)[C@@H](N)CC(=O)O)C(C)C)C(C)C)B1O[C@@H]2C[C@@H]3C[C@@H](C3(C)C)[C@]2(C)O1 [Peptide Boronic Acid analogue] (H-DEVVP-X11) | 0.42 |

Next, values leading:

| IC50 [µM] | Compound |
| --- | --- |
| 3.7 | Cc1ccc(CC[C@H](NC(=O)[C@@H]2CCCN2C(=O)[C@@H](NC(=O)[C@@H](NC(=O)[C@H](CCC(=O)O)NC(=O)[C@@H](N)CC(=O)O)C(C)C)C(C)C)B2O[C@@H]3C[C@@H]4C[C@@H](C4(C)C)[C@]3(C)O2)cc1 [Peptide Boronic Acid analogue] |
| 2.1 | CCCC[C@H](NC(=O)[C@@H]1CCCN1C(=O)[C@@H](NC(=O)[C@@H](NC(=O)[C@H](CCC(=O)O)NC(=O)[C@@H](N)CC(=O)O)C(C)C)C(C)C)B1O[C@@H]2C[C@@H]3C[C@@H](C3(C)C)[C@]2(C)O1 [Peptide Boronic Acid analogue] (H-DEVVP-X14) |

Molecular target: not listed separately
Experiment: Inhibitory concentration against Human pancreatic Serine protease chymotrypsin

| Compound | IC50 [µM] |
| --- | --- |
| CC(C)[C@H](NC(=O)[C@H](CCC(=O)O)NC(=O)[C@@H](N)CC(=O)O)C(=O)N[C@H](C(=O)N1CCC[C@H]1C(=O)N[C@@H](CCc1ccc(Oc2ccccc2)cc1)B1O[C@@H]2C[C@@H]3C[C@@H](C3(C)C)[C@]2(C)O1)C(C)C [Peptide Boronic Acid analogue] | > 60 |
| CC(C)c1ccc(CC[C@H](NC(=O)[C@@H]2CCCN2C(=O)[C@@H](NC(=O)[C@@H](NC(=O)[C@H](CCC(=O)O)NC(=O)[C@@H](N)CC(=O)O)C(C)C)C(C)C)B2O[C@@H]3C[C@@H]4C[C@@H](C4(C)C)[C@]3(C)O2)cc1 [Peptide Boronic Acid analogue] | > 60 |

The remaining lines, values ahead:

| IC50 [µM] | Compound |
| --- | --- |
| > 60 | CC(C)[C@H](NC(=O)[C@H](CCC(=O)O)NC(=O)[C@@H](N)CC(=O)O)C(=O)N[C@H](C(=O)N1CCC[C@H]1C(=O)N[C@@H](CCc1ccc(C(C)(C)C)cc1)B1O[C@@H]2C[C@@H]3C[C@@H](C3(C)C)[C@]2(C)O1)C(C)C [Peptide Boronic Acid analogue] |
| > 60 | CC(C)[C@H](NC(=O)[C@H](CCC(=O)O)NC(=O)[C@@H](N)CC(=O)O)C(=O)N[C@H](C(=O)N1CCC[C@H]1C(=O)N[C@@H](CCc1ccc(C2CCCCC2)cc1)B1O[C@@H]2C[C@@H]3C[C@@H](C3(C)C)[C@]2(C)O1)C(C)C [Peptide Boronic Acid analogue] |
| 20 | COc1ccc(CC[C@H](NC(=O)[C@@H]2CCCN2C(=O)[C@@H](NC(=O)[C@@H](NC(=O)[C@H](CCC(=O)O)NC(=O)[C@@H](N)CC(=O)O)C(C)C)C(C)C)B2O[C@@H]3C[C@@H]4C[C@@H](C4(C)C)[C@]3(C)O2)cc1 [Peptide Boronic Acid analogue] |

Molecular target: T1, Chymotrypsin-C
Experiment: ChEBML_197808
Description: as §1

| IC50 [µM] | Compound |
| --- | --- |
| 48 | CC(C)[C@H](NC(=O)[C@H](CCC(=O)O)NC(=O)[C@@H](N)CC(=O)O)C(=O)N[C@H](C(=O)N1CCC[C@H]1C(=O)N[C@@H](CCc1ccc(-c2ccccc2)cc1)B1O[C@@H]2C[C@@H]3C[C@@H](C3(C)C)[C@]2(C)O1)C(C)C [Peptide Boronic Acid analogue] |
